Assay results taken from ChEMBL document CHEMBL1149774, “Synthesis of N-(5,7-diamino-3-phenyl-quinoxalin-2-yl)-3,4,5-substituted anilines and N-[4[(5,7-diamino-3-phenylquinoxalin-2-yl)amino]benzoyl]-l-glutamic acid diethyl ester: evaluation of in vitro anti-cancer and anti-folate activities” (Eur J Med Chem, 2008).

Assays:
T47D = assay: Growth inhibition of human T47D cells after 48 hrs by SRB staining method; format: functional; settings: for CC50: read-out: pLC50 (the source's name) (converted); for TGI: read-out: pTGI (converted)
SF-295 = assay: Growth inhibition of human SF295 cells after 48 hrs by SRB staining method; format: functional; settings: SF-295, 48 h; for TGI: read-out: pTGI (converted)
IGROV-1 = assay: Growth inhibition of human IGROV1 cells after 48 hrs by SRB staining method; format: functional; settings: IGROV-1, 48 h; for TGI: read-out: pTGI (converted)
MDA-N = assay: Growth inhibition of human MDA-N cells after 48 hrs by SRB staining method; format: functional; settings: for CC50: read-out: pLC50 (the source's name) (converted); for TGI: read-out: pTGI (converted)
M14 = assay: Growth inhibition of human M14 cells after 48 hrs by SRB staining method; format: functional; settings: M14, 48 h; for TGI: read-out: pTGI (converted)
HT-29 = assay: Growth inhibition of human HT29 cells after 48 hrs by SRB staining method; format: functional; settings: HT-29, 48 h; for TGI: read-out: pTGI (converted)
SNB-75 = assay: Growth inhibition of human SNB75 cells after 48 hrs by SRB staining method; format: functional; settings: SNB-75, 48 h; for TGI: read-out: pTGI (converted)
COLO 205 = assay: Growth inhibition of human COLO205 cells after 48 hrs by SRB staining method; format: functional; settings: COLO 205, 48 h; for TGI: read-out: pTGI (converted)
Dihydrofolate reductase = biological target: T1, Dihydrofolate reductase (Homo sapiens, UniProt P00374); assay: Inhibition of human dihydrofolate reductase
T1 sequence (P00374 whole entry): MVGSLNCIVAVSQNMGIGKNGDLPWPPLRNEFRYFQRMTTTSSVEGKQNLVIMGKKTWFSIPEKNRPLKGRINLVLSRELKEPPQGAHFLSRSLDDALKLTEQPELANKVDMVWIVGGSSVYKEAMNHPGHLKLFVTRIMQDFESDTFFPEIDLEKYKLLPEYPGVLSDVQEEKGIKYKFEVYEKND

OVCAR-5 = assay: Growth inhibition of human OVCAR5 cells after 48 hrs by SRB staining method; format: functional; settings: OVCAR-5, 48 h; for TGI: read-out: pTGI (converted)
CCRF-CEM = assay: Growth inhibition of human CCRF-CEM cells after 48 hrs by SRB staining method; format: functional; settings: for CC50: read-out: pLC50 (the source's name) (converted); for TGI: read-out: pTGI (converted)
OVCAR-4 = assay: Growth inhibition of human OVCAR4 cells after 48 hrs by SRB staining method; format: functional; settings: OVCAR-4, 48 h; for TGI: read-out: pTGI (converted)
Thymidylate synthase = Thymidylate synthase (Homo sapiens, UniProt P04818)
Description: Inhibition of human thymidylate synthase

HOP-92 = assay: Growth inhibition of human HOP92 cells after 48 hrs by SRB staining method; format: functional; settings: HOP-92, 48 h
MDA-MB-435 = assay: Growth inhibition of human MDA-MB-435 cells after 48 hrs by SRB staining method; format: functional; settings: MDA-MB-435, 48 h; for CC50: read-out: pLC50 (the source's name) (converted); for TGI: read-out: pTGI (converted)
MCF7 = assay: Growth inhibition of human MCF7 cells after 48 hrs by SRB staining method; format: functional; settings: MCF7, 48 h; for CC50: read-out: pLC50 (the source's name) (converted); for TGI: read-out: pTGI (converted)
MDA-MB-231 = assay: Growth inhibition of human MDA-MB-231 cells after 48 hrs by SRB staining method; format: functional; settings: MDA-MB-231, 48 h; for CC50: read-out: pLC50 (the source's name) (converted); for TGI: read-out: pTGI (converted)
BT-549 = assay: Growth inhibition of human BT549 cells after 48 hrs by SRB staining method; format: functional; settings: BT-549, 48 h; for CC50: read-out: pLC50 (the source's name) (converted); for TGI: read-out: pTGI (converted)
CAKI-1 = assay: Growth inhibition of human CAKI1 cells after 48 hrs by SRB staining method; format: functional; settings: CAKI-1, 48 h; for CC50: read-out: pLC50 (the source's name) (converted); for TGI: read-out: pTGI (converted)
HL-60 = assay: Growth inhibition of human HL60 cells after 48 hrs by SRB staining method; format: functional; settings: HL-60, 48 h; for CC50: read-out: pLC50 (the source's name) (converted); for TGI: read-out: pTGI (converted)
UACC-257 = assay: Growth inhibition of human UACC257 cells after 48 hrs by SRB staining method; format: functional; settings: UACC-257, 48 h; for TGI: read-out: pTGI (converted)
Malme-3M = assay: Growth inhibition of human MALME-3M cells after 48 hrs by SRB staining method; format: functional; settings: for TGI: read-out: pTGI (converted)
HCT-116 = assay: Growth inhibition of human HCT116 cells after 48 hrs by SRB staining method; format: functional; settings: HCT-116, 48 h; for TGI: read-out: pTGI (converted)
OVCAR-3 = assay: Growth inhibition of human OVCAR-3 cells after 48 hrs by SRB staining method; format: functional; settings: OVCAR-3, 48 h; for TGI: read-out: pTGI (converted)
TK-10 = assay: Growth inhibition of human TK10 cells after 48 hrs by SRB staining method; format: functional; settings: TK-10, 48 h; for CC50: read-out: pLC50 (the source's name) (converted); for TGI: read-out: pTGI (converted)
PC-3 = assay: Growth inhibition of human PC3 cells after 48 hrs by SRB staining method; format: functional; settings: PC-3, 48 h; for CC50: read-out: pLC50 (the source's name) (converted); for TGI: read-out: pTGI (converted)

Thymidylate synthase, sequence (P04818 whole entry): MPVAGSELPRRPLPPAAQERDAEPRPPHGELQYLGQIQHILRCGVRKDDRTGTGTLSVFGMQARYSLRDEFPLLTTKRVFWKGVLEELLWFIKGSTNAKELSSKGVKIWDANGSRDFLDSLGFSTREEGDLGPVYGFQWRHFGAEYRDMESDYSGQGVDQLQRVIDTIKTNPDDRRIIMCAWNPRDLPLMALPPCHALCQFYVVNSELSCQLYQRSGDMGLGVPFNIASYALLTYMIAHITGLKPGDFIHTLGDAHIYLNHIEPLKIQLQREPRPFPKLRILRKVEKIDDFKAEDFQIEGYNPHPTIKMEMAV

COc1ccc(Nc2nc3cc(N)cc(N)c3nc2-c2ccccc2)cc1
GI50 (T47D): 17.8 µM | CC50 (T47D): > 100 µM | TGI (T47D): 53.7 µM | GI50 (SF-295): 31.6 µM | LC50 (SF-295): > 100 µM | TGI (SF-295): > 100 µM | GI50 (IGROV-1): 15.5 µM | LC50 (IGROV-1): 83.2 µM | TGI (IGROV-1): 35.5 µM | GI50 (MDA-N): 21.4 µM | CC50 (MDA-N): 60.3 µM | TGI (MDA-N): 36.3 µM | GI50 (M14): 17.8 µM | LC50 (M14): 75.9 µM | TGI (M14): 36.3 µM | GI50 (HT-29): 24 µM | LC50 (HT-29): 89.1 µM | TGI (HT-29): 42.7 µM | GI50 (SNB-75): 14.5 µM | LC50 (SNB-75): > 100 µM | TGI (SNB-75): 42.7 µM | GI50 (COLO 205): 15.8 µM | LC50 (COLO 205): 53.7 µM | TGI (COLO 205): 29.5 µM | Ki (Dihydrofolate reductase): 1.8 µM | GI50 (OVCAR-5): 21.4 µM | LC50 (OVCAR-5): > 100 µM | TGI (OVCAR-5): 53.7 µM | GI50 (CCRF-CEM): 12 µM | CC50 (CCRF-CEM): > 100 µM | TGI (CCRF-CEM): > 100 µM | GI50 (OVCAR-4): 10.5 µM | LC50 (OVCAR-4): 46.8 µM | TGI (OVCAR-4): 21.9 µM | Ki (Thymidylate synthase): 6 µM | GI50 (HOP-92): 20 µM | LC50 (HOP-92): > 100 µM | TGI (HOP-92; read-out: pTGI (converted)): 52.5 µM | GI50 (MDA-MB-435): 16.6 µM | CC50 (MDA-MB-435): 55 µM | TGI (MDA-MB-435): 30.2 µM | GI50 (MCF7): 14.8 µM | CC50 (MCF7): 52.5 µM | TGI (MCF7): 28.2 µM | GI50 (MDA-MB-231): 11.5 µM | CC50 (MDA-MB-231): 55 µM | TGI (MDA-MB-231): 25.1 µM | GI50 (BT-549): 13.5 µM | CC50 (BT-549): 75.9 µM | TGI (BT-549): 31.6 µM | GI50 (CAKI-1): 35.5 µM | CC50 (CAKI-1): > 100 µM | TGI (CAKI-1): > 100 µM | GI50 (HL-60): 34.7 µM | CC50 (HL-60): > 100 µM | TGI (HL-60): > 100 µM | GI50 (UACC-257): 15.1 µM | LC50 (UACC-257): 52.5 µM | TGI (UACC-257): 27.5 µM | GI50 (Malme-3M): 15.1 µM | LC50 (Malme-3M): 53.7 µM | TGI (Malme-3M): 28.2 µM | GI50 (HCT-116): 14.8 µM | LC50 (HCT-116): 52.5 µM | TGI (HCT-116): 28.2 µM | GI50 (OVCAR-3): 17.4 µM | LC50 (OVCAR-3): 79.4 µM | TGI (OVCAR-3): 37.2 µM | GI50 (TK-10): 16.6 µM | CC50 (TK-10): > 100 µM | TGI (TK-10): 42.7 µM | GI50 (PC-3): 20.9 µM | CC50 (PC-3): > 100 µM | TGI (PC-3): 47.9 µM

COc1cc(Nc2nc3cc(N)cc(N)c3nc2-c2ccccc2)cc(OC)c1
GI50 (T47D): 4.47 µM | CC50 (T47D): > 100 µM | TGI (T47D): 22.9 µM | GI50 (SF-295): 12.6 µM | LC50 (SF-295): > 100 µM | TGI (SF-295): 58.9 µM | GI50 (IGROV-1): 2.69 µM | LC50 (IGROV-1): > 100 µM | TGI (IGROV-1): 17 µM | GI50 (MDA-N): 12.9 µM | CC50 (MDA-N): 100 µM | TGI (MDA-N): 36.3 µM | GI50 (M14): 14.1 µM | LC50 (M14): 85.1 µM | TGI (M14): 34.7 µM | GI50 (HT-29): 27.5 µM | LC50 (HT-29): > 100 µM | TGI (HT-29): > 100 µM | GI50 (SNB-75): 3.72 µM | LC50 (SNB-75): > 100 µM | TGI (SNB-75): 44.7 µM | GI50 (COLO 205): 14.5 µM | LC50 (COLO 205): 67.6 µM | TGI (COLO 205): 31.6 µM | Ki (Dihydrofolate reductase): 0.6 µM | GI50 (OVCAR-5): 26.3 µM | LC50 (OVCAR-5): > 100 µM | TGI (OVCAR-5): > 100 µM | GI50 (CCRF-CEM): < 0.01 µM | CC50 (CCRF-CEM): 0.977 µM | TGI (CCRF-CEM): 0.166 µM | GI50 (OVCAR-4): 17.8 µM | LC50 (OVCAR-4): > 100 µM | TGI (OVCAR-4): > 100 µM | Ki (Thymidylate synthase): 25 µM | LC50 (HOP-92): > 100 µM | GI50 (MDA-MB-435): 11.5 µM | CC50 (MDA-MB-435): 49 µM | TGI (MDA-MB-435): 24 µM | GI50 (MCF7): 7.94 µM | CC50 (MCF7): 85.1 µM | TGI (MCF7): 26.9 µM | GI50 (MDA-MB-231): 6.46 µM | CC50 (MDA-MB-231): > 100 µM | TGI (MDA-MB-231): 34.7 µM | GI50 (BT-549): 4.68 µM | CC50 (BT-549): > 100 µM | TGI (BT-549): 31.6 µM | GI50 (CAKI-1): 14.8 µM | CC50 (CAKI-1): > 100 µM | TGI (CAKI-1): 72.4 µM | GI50 (HL-60): 10 µM | CC50 (HL-60): > 100 µM | TGI (HL-60): > 100 µM | GI50 (UACC-257): 15.8 µM | LC50 (UACC-257): > 100 µM | TGI (UACC-257): 47.9 µM | GI50 (Malme-3M): 4.37 µM | LC50 (Malme-3M): > 100 µM | TGI (Malme-3M): 24.5 µM | GI50 (HCT-116): 17 µM | LC50 (HCT-116): > 100 µM | TGI (HCT-116): 53.7 µM | GI50 (OVCAR-3): 3.89 µM | LC50 (OVCAR-3): 100 µM | TGI (OVCAR-3): 20 µM | GI50 (TK-10): 13.2 µM | CC50 (TK-10): > 100 µM | TGI (TK-10): 42.7 µM | GI50 (PC-3): 1.95 µM | CC50 (PC-3): 57.5 µM | TGI (PC-3): 11 µM
